Source: the supplement of paper PMC3974653
Where a name gives a salt, the structure may show the parent alone.

Test system: MTT (mouse pheochromocytoma)
Experiment: IC50 of cell viability (ATP content)
Conditions: (24 or 48 h)
In short: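 MTT mouse pheochromocytoma cells were seeded into white 1536-well plates at 5 µl per well from a 200,000 cells/ml suspension in DMEM with 5% FBS and 1% horse serum, then cultured overnight at 37°C, 5% CO2. A pintool added 23 nl of library compound in DMSO at 8 concentrations (final 0.5 nM to 46 µM) for 24 or 48 hrs, and CellTiter-Glo ATP luminescence was read after 15 minutes. Signals were scaled so that positive-control wells equalled 100% and DMSO wells 0%. IC50 values were derived by fitting a four-parameter logistic curve.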

| SMILES | IC50 of cell viability |
| --- | --- |
| CCCc1c(OCCCCc2nnn[nH]2)ccc(C(C)=O)c1O | > 46 µM |
| Oc1cn2c(n1)Nc1ccc(Cl)c(Cl)c1C2 [ANAGRELIDE HYDROCHLORIDE] | > 46 µM |
| O=Cc1ccccc1 [Benzaldehyde] | > 46 µM |
| Cn1c(=O)c2[nH]c(Br)nc2n(C)c1=O [PAMABROM] | > 46 µM |
| Nc1c(CC(=O)[O-])cccc1C(=O)c1ccccc1 [Amfenac Sodium] | > 46 µM |
| C=CCN.Cl.ClC[C@H]1CO1 [Sevelamer hydrochloride] | > 46 µM |
| CCCC(C)C1(CC)C(=O)N\C(=N/C1=O)O (configuration not stated) [PENTOBARBITAL] | > 46 µM |
| O=C1c2ccccc2-c2n[nH]c3cccc1c23 | > 46 µM |
| CCN(CC)CCSC(=O)C(c1ccccc1)c1ccccc1 [TIFENAMILUM] | > 46 µM |
| Nc1ccc(N)c([N+](=O)[O-])c1 [2-Nitro-1,4-phenylenediamine] | > 46 µM |
| Oc1nc(O)c2[nH]c(O)nc2n1 [Uric acid] | > 46 µM |
| C=CCN1CCC23c4c5ccc(O)c4O[C@H]2C(=O)CC[C@@]3(O)C1C5 (some centres not stated) [NALOXONE] | > 46 µM |
| OCC1O[C@H](O[C@H]2C(O)C(O)C(O)O[C@@H]2CO)C(O)C(O)C1O (some centres not stated) [CELLOBIOSE (D[+])] | > 46 µM |
| CSc1ccc(/C=C2/C(C)=C(CC(=O)O)c3cc(F)ccc32)cc1 [Sulindac sulfide] | > 46 µM |
| CCC/C=C/C=C/C(=O)OC1/C(=C/C(=O)OC)CC2CC(C(C)O)OC(=O)CC(O)CC3CC(OC(C)=O)C(C)(C)C(O)(CC4C/C(=C/C(=O)OC)CC(C=CC(C)(C)C1(O)O2)O4)O3 (configuration not stated) [BRYOSTATIN-1] | > 46 µM |
| [H][C@]1(CCCN(CC\C=C(\C2=C(C)C=CS2)C3=C(C)C=CS3)C1)C(O)=O [Tiagabine hydrochloride] | > 46 µM |
| CCOC(=O)c1ccc(OCCN2C[C@H](O)[C@@H](O)[C@H](O)[C@H]2CO)cc1 [EMIGLITATE] | > 46 µM |
| CCNC(C)Cc1cccc(C(F)(F)F)c1 (configuration not stated) [DEXFENFLURAMINE] | > 46 µM |
| C[C@@H](O)[C@H]1C(=O)N2C(C(=O)O)=C(S[C@@H]3CN[C@H](CN[S+](N)(=O)[O-])C3)[C@H](C)[C@H]12 [DORIPENEM HYDRATE] | > 46 µM |
| OC[C@H]1O[C@@H]2O[C@H]3[C@H](O)[C@@H](O)[C@@H](O[C@H]4[C@H](O)[C@@H](O)[C@@H](O[C@H]5[C@H](O)[C@@H](O)[C@@H](O[C@H]6[C@H](O)[C@@H](O)[C@@H](O[C@H]7[C@H](O)[C@@H](O)[C@@H](O[C@H]1[C@H](O)[C@H]2O)O[C@@H]7CO)O[C@@H]6CO)O[C@@H]5CO)O[C@@H]4CO)O[C@@H]3CO [alpha-Cyclodextrin] | > 46 µM |
| C[C@@H](CCc1ccccc1)NC[C@H](O)c1ccc(O)c(C(N)=O)c1 [Labetalol hydrochloride] | > 46 µM |
| c1ccc(CCNc2nc(-c3ccccc3)cs2)cc1 [Fanetizole] | > 46 µM |
| CCCCc1ccc(C(=O)O)nc1 [Fusaric acid] | > 46 µM |
| O=C(Oc1ccccc1C(=O)O)c1ccccc1O [SALSALATE] | > 46 µM |

| SMILES | IC50 of cell viability |
| --- | --- |
| O=C(NCN1CCOCC1)c1cnccn1 [Morinamida] | > 46 µM |
| O=C([O-])c1cc(Oc2ccc(C(F)(F)F)cc2Cl)ccc1[N+](=O)[O-] [Acifluorfen sodium] | > 46 µM |
| CN1CCN(c2c(F)cc3c(=O)c(C(=O)O)cn(CCF)c3c2F)CC1 [FLEROXACIN] | > 46 µM |
| OCc1c[nH]c2ccccc12 [Indole-3-carbinol] | > 46 µM |
| CCOc1ccc(N[S+](=O)([O-])c2ccc(N)cc2)nn1 [Sulfaethoxypyridazine] | > 46 µM |
| CCc1cc(Cl)c(OC)c(C(=O)NC[C@@H]2CCCN2CC)c1O [Eticlopride hydrochloride] | > 46 µM |
| O=C(O)c1ccccc1O [Salicylic acid] | > 46 µM |
| NCC(CC(=O)O)c1ccc(Cl)cc1 (configuration not stated) [BACLOFEN] | > 46 µM |
| Cn1sc(Cl)cc1=O [METHYLCHLOROISOTHIAZOLINONE] | > 46 µM |
| COc1ccc(-c2cc(C(F)F)nn2-c2ccc([S+](N)(=O)[O-])cc2)cc1F [DERACOXIB] | > 46 µM |
| C/C=C/C=N/NC(=O)c1ccncc1 [Crotoniazida] | > 46 µM |
| CC1(C)S[C@@H]2[C@H](NC(=O)CC3=CC=CC=C3)C(=O)[N@@]2[C@@H]1C(O)=O [Capicillin] | > 46 µM |
| CN(C)CCN(Cc1cccs1)c1ccccn1.Cl [METHAPYRILENE HYDROCHLORIDE] | > 46 µM |
| COCCCOc1cc(C[C@@H](C[C@H](N)[C@@H](O)C[C@H](C(=O)NCC(C)(C)C(N)=O)C(C)C)C(C)C)ccc1OC [Aliskiren] | > 46 µM |
| COc1cc(C(=O)OCCCN2CCCN(CCCOC(=O)c3cc(OC)c(OC)c(OC)c3)CC2)cc(OC)c1OC [DILAZEP] | > 46 µM |
| NC(=O)CN1CC(O)CC1=O (configuration not stated) [Oxiracetam] | > 46 µM |
| CC[N+](CC)(CC)CC.[Cl-] [Tetraethylammonium chloride] | > 46 µM |
| O=C(Nc1ccc(Cl)c(Cl)c1)C1CC1 [CYPROMID] | > 46 µM |
| Nc1c(NC/C=C\COc2cc(CN3CCCCC3)ccn2)c(=O)c1=O [PIBUTIDINE HYDROCHLORIDE] | > 46 µM |
| C=C1C[C@@H]2[C@H]3CCC4=CC(=O)C=C[C@]4(C)[C@@]3(F)[C@@H](O)C[C@]2(C)[C@]1(O)C(=O)COC(C)=O [Fluprednidene acetate] | > 46 µM |
| O=C(c1ccc(F)cc1)C1CCN(CCn2c(=O)[nH]c3ccccc3c2=O)CC1 [KETANSERIN] | > 46 µM |
| CCN1\N=C(\C(O)=O)C(=O)C2=C1C=C3OCOC3=C2 [Cinoxacin] | > 46 µM |
| CCCCNCC(O)c1ccc(O)cc1 (configuration not stated) [Bametano] | > 46 µM |
| CC(Cc1ccc2c(c1)OCO2)NO (configuration not stated) [(?)-N-Hydroxy-3,4-methylenedioxyamphetamine] | > 46 µM |

| SMILES | IC50 of cell viability |
| --- | --- |
| Cc1cc(C(C)(C)C)c(O)c(C(C)(C)C)c1 [Butylated hydroxytoluene] | > 46 µM |
| COc1cc(CC(C)N)c(OC)cc1C (single isomer, unassigned; (-)) [(-)-2,5-Dimethoxy-4-methylamphetamine] | > 46 µM |
| O=C(N/N=C/c1ccc([N+](=O)[O-])o1)c1cc([N+](=O)[O-])cc([N+](=O)[O-])c1O [Nifursol] | > 46 µM |
| CCN1CCCC1CNC(=O)c1cc([S+](=O)([O-])CC)ccc1OC (configuration not stated) [Sultopride Hydrochloride] | > 46 µM |
| OCCCBr [3-Bromo-1-propanol] | > 46 µM |
| CC(=O)c1ccc2c(c1)N(CCCN(C)C)c1ccccc1S2 [Acetopromazine maleate salt] | > 46 µM |
| COc1cc(OC)c(C(=O)CCCN2CCCC2)c(OC)c1 [Buflomedil hydrochloride] | > 46 µM |
| CC(C)(C)NC(=O)[C@@H]1CC[C@@H]2[C@@H]3CC[C@@H]4NC(=O)\C=C/[C@@]4(C)[C@H]3CC[C@@]12C [Finasteride] | > 46 µM |
| O=C/C=C/c1ccccc1 [CINNAMALDEHYDE] | > 46 µM |
| CC1CCc2c(N3CCC(O)CC3)c(F)cc3c(=O)c(C(=O)O)cn1c23 (configuration not stated) [Nadifloxacin] | > 46 µM |
| CCCCCCCCCCCCCCCC(=O)OC/C=C(C)/C=C/C=C(C)/C=C/C1=C(C)CCCC1(C)C [Retinyl palmitate] | > 46 µM |
| CCCCCCCCCCCCCCCCSCC(COC)COP(=O)([O-])OCC[N+](C)(C)C (configuration not stated) [Ilmofosine] | > 46 µM |
| CC(=O)Nc1ccc(C(=O)O)cc1 [p-Acetamidobenzoic acid] | > 46 µM |
| O=S([O-])CNc1ccc([S+](=O)([O-])c2ccc(NCS(=O)[O-])cc2)cc1 [Adesulfone sodium] | > 46 µM |
| Nc1ccc([S+](=O)([O-])Nc2ncccn2)cc1.[Ag] [sulfadiazine] | > 46 µM |
| CCCCC1C(=O)N(c2ccccc2)N(c2ccccc2)C1=O [Phenylbutazone] | > 46 µM |
| CCCCCC1Nc2cc(C(F)(F)F)c([S+](N)(=O)[O-])cc2[S+](=O)([O-])N1 (configuration not stated) [PENFLUTIZIDE] | > 46 µM |
| O=C(NC(=O)c1c(F)cccc1F)Nc1cc(Cl)c(OC(F)(F)C(F)C(F)(F)F)cc1Cl (configuration not stated) [Lufenuron] | > 46 µM |
| CNC1(c2ccccc2Cl)CCCCC1=O (configuration not stated) [ESKETAMINUM] | > 46 µM |
| CN(C)C(=O)Nc1ccc(Cl)c(Cl)c1 [DIURON] | > 46 µM |
| CCCC(=O)[O-] [SODIUM BUTYRATE] | > 46 µM |
| Oc1ncnc2[nH]ncc12 [Allopurinol] | > 46 µM |
| CC(C)(Sc1cc(C(C)(C)C)c(O)c(C(C)(C)C)c1)Sc1cc(C(C)(C)C)c(O)c(C(C)(C)C)c1 [Probucol] | > 46 µM |
| COc1ccc(CC(C)NCC(O)c2ccc(O)c(NC=O)c2)cc1 (configuration not stated) [ARFORMOTEROL TARTRATE] | > 46 µM |
